# Laboratory results: US20200055839A1 (priority 2017, published 2020)
# pEC50: −log10 of the molar value.
# System: NL-RLuc virus
# Test: Inhibition of HIV replication (NL-RLuc virus, luciferase readout in MT-2 cells)
# Format: cell-based
# Conditions: Human immunodeficiency virus 1, MT2, 120 h, MT-2 cells infected with NL-RLuc virus, 5 days of incubation, 10% FBS, at least 2 experiments
# Summary of the method: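 MT-2 cells infected with NL4-3-derived virus carrying Renilla luciferase in place of part of nef, grown 5 days with serial compound dilutions in RPMI 1640/10% FBS. Virus growth read as luciferase expression. EC50 from median effect equation, at least 2 experiments.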
row,Compound,pEC50
1,"Cc1ncc(-c2cncc(CCC(C)C)c2)c(N2CCC(C)(C)CC2)c1[C@H](OC(C)(C)C)C(=O)O [Example 419, (S)-2-(tert-Butoxy)-2-(4-(4,4-dimethylpiperidin-1-yl)-5′-isopentyl-6-methyl-[3, 3′-bipyridin]-5-yl)acetic acid]",7.51
2,"Cc1nc(N)c(-c2ccc(OCCc3ccc(F)cc3)cc2F)c(N2CCC(C)(C)CC2)c1[C@H](OC(C)(C)C)C(=O)O [Example 72, (2S)-2-(6-Amino-4-(4,4-dimethylpiperidin-1-yl)-5-(2-fluoro-4-(4-fluorophenethoxy)phenyl)-2-methylpyridin-3-yl)-2-(tert-butoxy)acetic acid]",8.70
3,"Cc1nc(Nc2ccncc2)c(-c2ccc(OCCc3ccc(F)cc3)c(F)c2)c(N2CCC(C)(C)CC2)c1[C@H](OC(C)(C)C)C(=O)O [Example 104, (S)-2-(tert-Butoxy)-2-(4-(4,4-dimethylpiperidin-1-yl)-5-(3-fluoro-4-(4-fluorophenethoxy)phenyl)-2-methyl-6-(pyridin-4-ylamino)pyridin-3-yl)acetic acid]",9.15
4,"Cc1nc(-c2cnc(C)c([C@H](OC(C)(C)C)C(=O)O)c2N2CCC(C)(C)CC2)ccc1OCCc1ccc(F)cc1 [Example 232, (S)-2-(tert-Butoxy)-2-(4′-(4,4-dimethylpiperidin-1-yl)-5-(4-fluorophenethoxy)-6, 6′-dimethyl-[2, 3′-bipyridin]-5′-yl)acetic acid]",8.22
5,"Cc1ccccc1CCOc1ncc(-c2cnc(C)c([C@H](OC(C)(C)C)C(=O)O)c2N2CCC(C)(C)CC2)cc1F [Example 385, (2S)-2-(tert-butoxy)-2-[4-(4,4-dimethylpiperidin-1-yl)-5′-fluoro-6-methyl-6′-[2-(2-methylphenyl)ethoxy]-[3,3′-bipyridine]-5-yl]acetic acid]",8.52
6,"Cc1cc(-c2cnc(C)c([C@H](OC(C)(C)C)C(=O)O)c2N2CCC(C)(C)CC2)ccn1 [Example 142, (2S)-2-(tert-Butoxy)-2-[4-(4,4-dimethylpiperidin-1-yl)-2′,6-dimethyl-[3, 4′-bipyridine]-5-yl]acetic acid]",8.22
7,"Cc1ncc(-c2cccc3ccccc23)c(N2CCC(C)(C)CC2)c1[C@H](OC(C)(C)C)C(=O)O [Example 182, (2S)-2-(tert-Butoxy)-2-[4-(4,4-dimethylpiperidin-1-yl)-2-methyl-5-(naphthalen-1-yl)pyridin-3-yl]acetic acid]",7.57
8,"Cc1ncc(-c2cnc(O)c(F)c2)c(N2CCC(C)(C)CC2)c1[C@H](OC(C)(C)C)C(=O)O [Example 387, (2S)-2-(tert-butoxy)-2-[4-(4,4-dimethylpiperidin-1-yl)-5′-fluoro-6′-hydroxy-6-methyl-[3,3′-bipyridine]-5-yl]acetic acid]",5.40
9,"COc1ccc(-c2cnc(C)c([C@H](OC(C)(C)C)C(=O)O)c2N2CCC(C)(C)CC2)c(F)c1F [Example 149, (2S)-2-(tert-Butoxy)-2-[5-(2,3-difluoro-4-methoxyphenyl)-4-(4,4-dimethylpiperidin-1-yl)-2-methylpyridin-3-yl]acetic acid]",8.22
10,"Cc1ncc(-c2ccc(OCCCc3ccccc3)cn2)c(N2CCC(C)(C)CC2)c1[C@H](OC(C)(C)C)C(=O)O [Example 321, (2S)-2-(tert-butoxy)-2-[4′-(4,4-dimethylpiperidin-1-yl)-6′-methyl-5-(3-phenylpropoxy)-[2,3′-bipyridine]-5′-yl]acetic acid]",9.30
11,"Cc1ncc(-c2cnc(OCCc3cccc(Cl)c3)c(F)c2)c(N2CCC(C)(C)CC2)c1[C@H](OC(C)(C)C)C(=O)O [Example 371, (2S)-2-(tert-butoxy)-2-{6′-[2-(3-chlorophenyl)ethoxy]-4-(4,4-dimethylpiperidin-1-yl)-5′-fluoro-6-methyl-[3,3′-bipyridine]-5-yl}acetic acid]",9.00
12,"Cc1nc(N)c(-c2ccc(OCCc3ccc(F)cc3)c(F)c2F)c(N2CCC(C)(C)CC2)c1[C@H](OC(C)(C)C)C(=O)O (single isomer, unassigned) [Example 70]",8.70
13,"Cc1nc(NCC2CCOCC2)c(-c2ccc(OCCc3ccc(F)cc3)cc2)c(N2CCC(C)(C)CC2)c1[C@H](OC(C)(C)C)C(=O)O [Example 44, (S)-2-(tert-Butoxy)-2-(4-(4,4-dimethylpiperidin-1-yl)-5-(4-(4-fluorophenethoxy)phenyl)-2-methyl-6-(((tetrahydro-2H-pyran-4-yl)methyl)amino)pyridin-3-yl)acetic acid]",8.52
14,"Cc1ncc(-c2ccc(F)nc2OCCc2ccc(F)cc2)c(N2CCC(C)(C)CC2)c1[C@H](OC(C)(C)C)C(=O)O (single isomer, unassigned) [Example 262]",5.95
15,"CC1(C)CCN(c2c(-c3ccc(F)c(F)c3)c(CN3CCC4(CCC4)CC3)nc(Cl)c2[C@H](OC(C)(C)C)C(=O)O)CC1 [Example 207, (S)-2-(6-((7-Azaspiro[3.5]nonan-7-yl)methyl)-2-chloro-5-(3,4-difluorophenyl)-4-(4,4-dimethylpiperidin-1-yl)pyridin-3-yl)-2-(tert-butoxy)acetic acid]",7.44
16,"Cc1ncc(-c2cnc(OCCc3ccccc3Cl)c(F)c2)c(N2CCC(C)(C)CC2)c1[C@H](OC(C)(C)C)C(=O)O [Example 238, (S)-2-(tert-Butoxy)-2-(6′-(2-chlorophenethoxy)-4-(4,4-dimethylpiperidin-1-yl)-5′-fluoro-6-methyl-[3, 3′-bipyridin]-5-yl)acetic acid]",8.70
17,"Cc1ncc(-c2cc(F)c(F)c(F)c2)c(N2CCC(C)(C)CC2)c1[C@H](OC(C)(C)C)C(=O)O [Example 129, (2S)-2-(tert-Butoxy)-2-[4-(4,4-dimethylpiperidin-1-yl)-2-methyl-5-(3,4,5-trifluorophenyl)pyridin-3-yl]acetic acid]",8.52
18,"Cc1nc(N)c(-c2cc(F)c(OCCc3ccc(F)cc3)cc2F)c(N2CCC(C)(C)CC2)c1[C@H](OC(C)(C)C)C(=O)O [Example 68, (2S)-2-(6-Amino-5-(2,5-difluoro-4-(4-fluorophenethoxy)phenyl)-4-(4,4-dimethylpiperidin-1-yl)-2-methylpyridin-3-yl)-2-(tert-butoxy)acetic acid]",8.70
19,"Cc1ncc(-c2cccc(Cl)c2F)c(N2CCC(C)(C)CC2)c1[C@H](OC(C)(C)C)C(=O)O [Example 145, (2S)-2-(tert-Butoxy)-2-[5-(3-chloro-2-fluorophenyl)-4-(4,4-dimethylpiperidin-1-yl)-2-methylpyridin-3-yl]acetic acid]",8.30
20,"Cc1ncc(-c2ccc(OC(C)C)cn2)c(N2CCC(C)(C)CC2)c1[C@H](OC(C)(C)C)C(=O)O [Example 314, (2S)-2-(tert-butoxy)-2-[4′-(4,4-dimethylpiperidin-1-yl)-6′-methyl-5-(propan-2-yloxy)-[2,3′-bipyridine]-5′-yl]acetic acid]",8.30
21,"Cc1nc(C(=O)N2CCC(C)(C)CC2)c(-c2ccc(OCCc3ccc(F)cc3)cc2)c(N2CCC(C)(C)CC2)c1[C@H](OC(C)(C)C)C(=O)O [Example 11, (S)-2-(tert-Butoxy)-2-(4-(4,4-dimethylpiperidin-1-yl)-6-(4,4-dimethylpiperidine-1-carbonyl)-5-(4-(4-fluorophenethoxy)phenyl)-2-methylpyridin-3-yl)acetic acid]",8.40
22,"Cc1ccncc1Nc1nc(C)c([C@H](OC(C)(C)C)C(=O)O)c(N2CCC(C)(C)CC2)c1-c1ccc(OCCc2ccc(F)cc2)cc1 [Example 86, (S)-2-(tert-Butoxy)-2-(4-(4,4-dimethylpiperidin-1-yl)-5-(4-(4-fluorophenethoxy)phenyl)-2-methyl-6-((4-methylpyridin-3-yl)amino)pyridin-3-yl)acetic acid]",8.52
23,"Cc1nc(-c2cnn(C)c2)c(-c2ccc(OCCc3ccc(F)cc3)cc2)c(N2CCC(C)(C)CC2)c1[C@H](OC(C)(C)C)C(=O)O [Example 36, (S)-2-(tert-Butoxy)-2-(4-(4,4-dimethylpiperidin-1-yl)-5-(4-(4-fluorophenethoxy)phenyl)-2-methyl-6-(1-methyl-H-pyrazol-4-yl)pyridin-3-yl)acetic acid]",8.40
24,"CN(Cc1ccc(-c2cnc(Cl)c([C@H](OC(C)(C)C)C(=O)O)c2N2CCC(C)(C)CC2)cc1)c1ncnc2c1oc1ccccc12 [Example 220, (S)-2-(5-(4-((Benzofuro[3,2-d]pyrimidin-4-yl(methyl)amino)methyl)phenyl)-2-chloro-4-(4,4-dimethylpiperidin-1-yl)pyridin-3-yl)-2-(tert-butoxy)acetic acid]",8.70
25,"Cc1ncc(-c2cnc(OCCc3c(F)cccc3Cl)c(F)c2)c(N2CCC(C)(C)CC2)c1[C@H](OC(C)(C)C)C(=O)O [Example 239, (S)-2-(tert-Butoxy)-2-(6′-(2-chloro-6-fluorophenethoxy)-4-(4,4-dimethylpiperidin-1-yl)-5′-fluoro-6-methyl-[3, 3′-bipyridin]-5-yl)acetic acid]",8.52
26,"Cc1cccc(CCOc2ncc(-c3cnc(C)c([C@H](OC(C)(C)C)C(=O)O)c3N3CCC(C)(C)CC3)cc2F)c1 [Example 372, (2S)-2-(tert-butoxy)-2-[4-(4,4-dimethylpiperidin-1-yl)-5′-fluoro-6-methyl-6′-[2-(3-methylphenyl)ethoxy]-[3,3′-bipyridine]-5-yl]acetic acid]",9.00
27,"Cc1nc(NCCCC2CCCCC2)c(-c2ccc(OCCc3ccc(F)cc3)cc2)c(N2CCC(C)(C)CC2)c1[C@H](OC(C)(C)C)C(=O)O [Example 91, (S)-2-(tert-Butoxy)-2-(6-((3-cyclohexylpropyl)amino)-4-(4,4-dimethylpiperidin-1-yl)-5-(4-(4-fluorophenethoxy)phenyl)-2-methylpyridin-3-yl)acetic acid]",7.14
28,"Cc1nc(OCC(C)C)ccc1-c1cnc(C)c([C@H](OC(C)(C)C)C(=O)O)c1N1CCC(C)(C)CC1 [Example 418, (S)-2-(tert-Butoxy)-2-(4-(4,4-dimethylpiperidin-1-yl)-6′-isobutoxy-2′,6-dimethyl-[3, 3′-bipyridin]-5-yl)acetic acid]",6.97
